Measured values published in the NIST ThermoML archive (doi:10.1016/j.fluid.2010.05.010).
Numbers after ± are expanded uncertainties.

Experiment: activity coefficient (dimensionless); of the first substance listed, at infinite dilution; xn = mol fraction of the nth substance listed
Conditions: 101 kPa, Liquid, x1 = 0

Structure (SMILES) | activity coefficient (273.35 K, Inert gas stripping) | activity coefficient (283.15 K, Inert gas stripping) | activity coefficient (293.15 K, Inert gas stripping) | activity coefficient (298.15 K, Inert gas stripping) | activity coefficient (303.15 K, Inert gas stripping) | activity coefficient (313.15 K, Inert gas stripping) | activity coefficient (323.15 K, Inert gas stripping) | activity coefficient (333.15 K, Inert gas stripping) | activity coefficient (293.15 K, Headspace solid-phase microextraction) | activity coefficient (298.15 K, Headspace solid-phase microextraction) | activity coefficient (303.15 K, Headspace solid-phase microextraction)
CCOC(=O)OCC [diethyl carbonate] + O | 246 ± 1 | 299 ± 1 | 353 ± 1 | 374 ± 1 | 394 ± 1 | 408 ± 1 | 394 ± 1 | 388 ± 1 |  |  | 
COC(=O)OC [dimethyl carbonate] + O | 37.6 ± 0.2 | 43.8 ± 0.1 | 46.3 ± 0.1 | 48 ± 0.1 | 49.3 ± 0.1 | 50 ± 0.1 | 50.9 ± 0.1 | 50.3 ± 0.1 |  |  | 
C=C(C)C(=O)OC [methyl methacrylate] + O | 283 ± 1 | 321 ± 1 | 366 ± 1 | 380 ± 1 | 390 ± 1 | 403 ± 1 | 403 ± 1 | 394 ± 1 | 380 ± 1 | 389 ± 1 | 382 ± 1
C=COC(C)=O [vinyl acetate] + O | 150 ± 1 | 161 ± 1 | 177 ± 1 | 181 ± 1 | 187 ± 1 | 190 ± 1 | 194 ± 1 | 187 ± 1 |  |  | 
